Test results taken from patent US4470840A, “1-Triacontanol plant growth stimulator formulations” (Biochemical Research Corporation, priority 1981, dated 1984).

Assays:
Format in all cases: in vivo
[1] = test system: Hybrid Sweet Corn Seedlings (cv. Silver Queen); assay: Greenhouse trial: dry weight and water uptake of seedlings after foliar spraying; conditions: for % increase (dry weight) / % increase (water uptake) / Dry weight / Water uptake: metal ion 9 mM (none in the last line) with 1-triacontanol 0.1 mg/liter, pH 8 to 10; for Dry weight: control 0.86 g; for Water uptake: control 8.7 g; for Increase in dry weight: 1-triacontanol 0.1 mg/liter, additive 9 mM (none in the last line)
Procedure: (§1) In general, greenhouse trials were conducted as follows: eight to twelve seeds were sown per pot in Peat-Lite® Mix and received an average of 100 ml of water per day. After plants had the third true leaf (average), the various formulations were applied to the leaves as a fine mist at air temperatures listed in Table 1. Temperatures above 20° C., preferably 25°-30° C., are preferred.
(§2) The 1-triacontanol formulation most generally used consisted of a concentrate containing 5 mg of 1-triacontanol dissolved in 1 liter of acetone, with 20 ml of the concentrate being further dissolved to 1 liter with water having a pH between 8 and 10, with over a pH of 11 also being effective. The pH was adjusted with aqueous NaOH and the concentrate added just prior to spraying.
(§3) When other plant growth substances were added to the formulations, these were added either to the concentrate in the polar organic solvent or alternatively in the aqueous solution, depending on the solubility of the plant growth substance. All metal salts were added to the water used to spray the 1-triacontanol formulations. After spraying, preferably about four to nine days or more, plants were harvested with roots, and fresh weights were obtained. Plants were then dried in an oven, preferably at a temperature below 100° C., until constant weight was obtained, and dry weight values were obtained for each plot. Subtraction of the dry weights from the fresh weights gave the water uptake weights (water content) of each plot. The weights of the above mentioned seedlings were compared to the control weights to obtain the percent increases.
(§4) It is particularly advantageous to arrange each of the potted plants in size range categories corresponding to the number of replications used. For example, if five replications are employed, plants are divided into five size categories, normally measured by the height of the plants. Treatments are then assigned randomly within each block (size category). This removes the variation due to plant size for statistical purposes, as is well practiced in the art. The resulting data is analyzed using any appropriate means, which may include the least significant difference method (L.S.D. method), Duncan's multiple range test, as used here (Biometrics, 11: 1 (1955)), or other means.

[2] = test system: Field Corn Seedlings (cv. Trojan TXS 94, Pioneer 3780, WF9 X Bear 38); assay: as above; conditions: for Dry wt. increase: 1-triacontanol 0.1 mg/liter
Procedure: as §1, §2, §3, §4

[3] = test system: Hybrid Sweet Corn Seedlings (cv. Silver Queen); assay: Lengths of stems and total plant length of seedlings sprayed Day 7; conditions: T = 1-triacontanol 0.1 mg/liter; for Length "a" (stem to the first leaf): control 11.5 cm; for Length "b" (total plant length): control 25.0 cm
[4] = 14-day old seedlings, Formulation 4
[5] = 14-day old seedlings, plant growth substance 0.10 mM, with 1-triacontanol 0.1 mg/liter
[6] = 14-day old seedlings, plant growth substance 0.10 mM, without 1-triacontanol
[7] = cv. Trojan TXS 94, brassinosteroid 0.4 μM w/o triacontanol, Formulation 7
[8] = cv. Trojan TXS 94, brassinosteroid 0.4 μM with 1-triacontanol 0.5 mg/liter containing 10 mM CaCl2, Formulation 7
[9] = 14-day old seedlings, plant growth substance 0.01 mM, with 1-triacontanol 0.1 mg/liter
[10] = 14-day old seedlings, plant growth substance 0.01 mM, without 1-triacontanol
[11] = plant growth substance 0.04 mM, CaCl2 10 mM, 1-triacontanol 0.5 mg per liter, pH 8
[12] = plant growth substance 0.04 mM, CaCl2 50 mM, 1-triacontanol 0.5 mg per liter, pH 8
[13] = 14-day old seedlings, metal salt 1 mM (1 ea. for the mixture), with 1-triacontanol 0.1 mg/liter, Formulation 4
[14] = plant growth substance 0.001 mM, CaCl2 50 mM, 1-triacontanol 0.5 mg per liter, pH 8
[15] = plant growth substance 0.01 mM, CaCl2 50 mM, 1-triacontanol 0.5 mg per liter, pH 8
[16] = plant growth substance 0.10 mM, CaCl2 50 mM, 1-triacontanol 0.5 mg per liter, pH 8
[17] = plant growth substance 0.01 mM, CaCl2 10 mM, 1-triacontanol 0.5 mg per liter, pH 8
[18] = cv. Trojan TXS 94, metal salt 1 mM (1 ea. for the mixture), Formulation 4
[19] = 14-day old seedlings, metal salt 5 mM, with 1-triacontanol 0.1 mg/liter, Formulation 4
[20] = 14-day old seedlings, metal salt 5 mM, with 1-triacontanol 0.1 mg/liter, Formulation 11 (chloroform, Tween-20)
[21] = 14-day old seedlings, metal salt 10 mM, with 1-triacontanol 0.1 mg/liter, Formulation 4
[22] = 14-day old seedlings, metal salt 10 mM, with 1-triacontanol 0.1 mg/liter, Formulation 11 (chloroform, Tween-20)
[23] = 14-day old seedlings, metal salt 10 mM, without 1-triacontanol, Formulation 4

SMILES: [Ca+2] [Ca^+2]
- % increase (dry weight) [1, 4]: +50%
- % increase (water uptake) [1, 4]: +16%
- Dry weight [1, 4]: 1.29 g
- Water uptake [1, 4]: 10.1 g

SMILES: O=C(O)c1cc(I)cc(I)c1I [TIBA, 2,3,5-triiodobenzoic acid, reference compound]
- Increases, H2O uptake [1, 5]: +1%
- Increases, dry wt. [1, 5]: +19%
- Increases, H2O uptake [1, 6]: -12%
- Increases, dry wt. [1, 6]: +10%

SMILES: O=c1ccc(=O)[nH][nH]1 [MH, maleic hydrazide, reference compound]
- Increases, H2O uptake [1, 5]: -7%
- Increases, dry wt. [1, 5]: +12%
- Increases, H2O uptake [1, 6]: -1%
- Increases, dry wt. [1, 6]: +7%

SMILES: CC(C)[C@@H](C)[C@H](O)[C@@H](O)[C@@H](C)[C@H]1CC[C@H]2[C@@H]3COC(=O)[C@H]4C[C@H](O)[C@H](O)C[C@]4(C)[C@H]3CC[C@]12C [Brassinosteroid, 2α,3α,22α,23α-tetrahydroxy-24α-methyl-B-hoo-5α-cholestan-6-one, reference compound]
- Increases, dry wt. [2, 7]: +11%
- Increases, water uptake [2, 7]: +8%
- Increases, dry wt. [2, 8]: +19%
- Increases, water uptake [2, 8]: +10%

SMILES: C=C1C[C@]23C[C@@]1(O)CC[C@H]2[C@@]12C=C[C@H](O)[C@@](C)(C(=O)O1)[C@H]2[C@@H]3C(=O)O [GA3, gibberellic acid, reference compound]
- Increases, H2O uptake [1, 9]: -3%
- Increases, dry wt. [1, 9]: -15%
- Increases, H2O uptake [1, 10]: -6%
- Increases, dry wt. [1, 10]: -24%
- Increases, H2O uptake [1, 11]: +15%
- Increases, dry wt. [1, 11]: +16%
- Increases, H2O uptake [1, 12]: +13%
- Increases, dry wt. [1, 12]: +22%
- Increase in length "a" [3]: -3%
- Increase in length "b" [3]: +6%
- Length "a" (stem to the first leaf) [3]: 11.2 cm
- Length "b" (total plant length) [3]: 26.6 cm

SMILES: [Sr+2] [Sr^+2]
- % increase (dry weight) [1, 4]: +81%
- % increase (water uptake) [1, 4]: +48%
- Dry weight [1, 4]: 1.56 g
- Water uptake [1, 4]: 12.9 g

SMILES: [Ba+2] [Ba^+2]
- % increase (dry weight) [1, 4]: +35%
- % increase (water uptake) [1, 4]: +48%
- Dry weight [1, 4]: 1.16 g
- Water uptake [1, 4]: 12.9 g

SMILES: [Cl][Mn][Cl] [MnCl2]
- Increases, H2O uptake [1, 13]: +29%
- Increases, dry wt. [1, 13]: +9%

SMILES: N.N.N.N.N.N.[Cl-].[Cl-].[Cl-].[Co+3] [Co(NH3)6 Cl3, reference compound]
- Increase in dry weight ([1]; Formulation 4): +13%

SMILES: [Cd+2] [Cd^+2]
- % increase (dry weight) [1, 4]: +58%
- % increase (water uptake) [1, 4]: +14%
- Dry weight [1, 4]: 1.36 g
- Water uptake [1, 4]: 9.9 g

SMILES: CC(C)CC(N)C(=O)[O-].CC(C)CC(N)C(=O)[O-].[Ca+2] (stereo not shown) [Metal Proteinate, reference compound]
- Increase in dry weight ([1]; Formulation 4): +15%

SMILES: [Cl-].[Cl-].[Mg+2] [MgCl2]
- Increases, H2O uptake [1, 13]: +20%
- Increases, dry wt. [1, 13]: +21%

SMILES: O=C(O)Cc1c[nH]c2ccccc12 [IAA, indole-3-acetic acid, reference compound]
- Increases, H2O uptake [1, 9]: -5%
- Increases, dry wt. [1, 9]: +2%
- Increases, H2O uptake [1, 10]: -7%
- Increases, dry wt. [1, 10]: +4%
- Increases, H2O uptake [1, 14]: +18%
- Increases, dry wt. [1, 14]: +37%
- Increases, H2O uptake [1, 15]: +25%
- Increases, dry wt. [1, 15]: +56%
- Increases, H2O uptake [1, 16]: +14%
- Increases, dry wt. [1, 16]: +36%
- Increase in length "a" [3]: 0%
- Increase in length "b" [3]: -2%
- Length "a" (stem to the first leaf) [3]: 11.6 cm
- Length "b" (total plant length) [3]: 24.4 cm

SMILES: c1coc(CNc2ncnc3nc[nH]c23)c1 [Kinetin, 6-furfurylamino purine, reference compound]
- Increases, H2O uptake [1, 9]: +14%
- Increases, dry wt. [1, 9]: -21%
- Increases, H2O uptake [1, 10]: -3%
- Increases, dry wt. [1, 10]: -24%
- Increases, H2O uptake [1, 17]: +13%
- Increases, dry wt. [1, 17]: +3%
- Increases, H2O uptake [1, 15]: -2%
- Increases, dry wt. [1, 15]: +1%
- Increase in length "a" [3]: 0%
- Increase in length "b" [3]: +30%
- Length "a" (stem to the first leaf) [3]: 11.5 cm
- Length "b" (total plant length) [3]: 32.5 cm

SMILES: [Ca+2].[Cl-].[Cl-] [CaCl2]
- Dry wt. increase ([2]; cv. Pioneer 3780, metal salt 0 mM, Formulation 11): -5%
- Dry wt. increase ([2]; cv. Pioneer 3780, metal salt 1 mM, Formulation 4): +19%
- Dry wt. increase ([2]; cv. Pioneer 3780, metal salt 7.5 mM, Formulation 4, NAA 1.0 μM): +32%
- Dry wt. increase ([2]; cv. Trojan TXS 94, metal salt 0.5 mM, Formulation 4): +22%
- Dry wt. increase [2, 18]: 20-30%
- Dry wt. increase ([2]; cv. Trojan TXS 94, metal salt 1 mM, Formulation 11): -10%
- Dry wt. increase ([2]; cv. Trojan TXS 94, metal salt 1.25 mM, Formulation 4): +30%
- Dry wt. increase ([2]; cv. Trojan TXS 94, metal salt 5 mM, Formulation 7, 2,4,5-T 10.0 μM): +22%
- Dry wt. increase ([2]; cv. Trojan TXS 94, metal salt 5 mM, Formulation 7, 2,4-D 10.0 μM): +23%
- Dry wt. increase ([2]; cv. Trojan TXS 94, metal salt 6 mM, Formulation 7, NAA 1.0 μM): +28%
- Dry wt. increase ([2]; cv. Trojan TXS 94, metal salt 3-5 mM, Formulation 7, IAA 10.0 μM): 20-30%
- Dry wt. increase ([2]; cv. WF9 X Bear 38, metal salt 1 mM, Formulation 4): +8%
- Increase in dry weight ([1]; Formulation 4): +50%
- Increases, H2O uptake [1, 13]: +35%
- Increases, dry wt. [1, 13]: +42%
- Increases, H2O uptake [1, 19]: +21%
- Increases, dry wt. [1, 19]: +50%
- Increases, H2O uptake [1, 20]: +6%
- Increases, dry wt. [1, 20]: +5%
- Increases, H2O uptake [1, 21]: +11%
- Increases, dry wt. [1, 21]: +65%
- Increases, H2O uptake [1, 22]: +9%
- Increases, dry wt. [1, 22]: -5%
- Increases, H2O uptake [1, 23]: -2%
- Increases, dry wt. [1, 23]: +4%

SMILES: [Pb+2] [Pb^+2]
- % increase (dry weight) [1, 4]: +81%
- % increase (water uptake) [1, 4]: +55%
- Dry weight [1, 4]: 1.56 g
- Water uptake [1, 4]: 13.5 g

SMILES: O=C(O)COc1ccc(Cl)cc1Cl [2,4-D, 2,4-dichlorophenoxyacetic acid, reference compound]
- Increases, H2O uptake [1, 9]: -13%
- Increases, dry wt. [1, 9]: +17%
- Increases, H2O uptake [1, 10]: -9%
- Increases, dry wt. [1, 10]: +10%
- Increase in dry weight over controls ([1]; formulations containing metal ions and synthetic auxin, cv. Silver Queen): 100%

SMILES: [Zn+2] [Zn^+2]
- % increase (dry weight) [1, 4]: +38%
- % increase (water uptake) [1, 4]: +21%
- Dry weight [1, 4]: 1.17 g
- Water uptake [1, 4]: 10.5 g

SMILES: [Mn+2] [Mn^+2]
- % increase (dry weight) [1, 4]: +31%
- % increase (water uptake) [1, 4]: +25%
- Dry weight [1, 4]: 1.13 g
- Water uptake [1, 4]: 10.9 g

SMILES: [Mg+2] [Mg^+2]
- % increase (dry weight) [1, 4]: +73%
- % increase (water uptake) [1, 4]: +55%
- Dry weight [1, 4]: 1.49 g
- Water uptake [1, 4]: 13.5 g

SMILES: O=S(=O)([O-])[O-].O=S(=O)([O-])[O-].[Ce+4] [Ce(SO4)2]
- Increases, H2O uptake [1, 13]: +26%
- Increases, dry wt. [1, 13]: +21%

SMILES: [Cl][La]([Cl])[Cl] [LaCl3]
- Dry wt. increase [2, 18]: 25-30%
- Increases, dry wt. [1, 21]: +72%
- Increases, H2O uptake [1, 23]: -2%
- Increases, dry wt. [1, 23]: +5%
